Results reported in paper PMC2857669 (Biochemistry, 2009).
≈ marks a conversion by molar mass, not a printed value. Like-named read-outs stand apart in the source and are kept apart here.

Columns and labels:
[1] = target: T1, ferrous heme-hHO-1 (Homo sapiens, UniProt P09601); conditions: cited from earlier work
T1 sequence (P09601 1-265 limits assumed): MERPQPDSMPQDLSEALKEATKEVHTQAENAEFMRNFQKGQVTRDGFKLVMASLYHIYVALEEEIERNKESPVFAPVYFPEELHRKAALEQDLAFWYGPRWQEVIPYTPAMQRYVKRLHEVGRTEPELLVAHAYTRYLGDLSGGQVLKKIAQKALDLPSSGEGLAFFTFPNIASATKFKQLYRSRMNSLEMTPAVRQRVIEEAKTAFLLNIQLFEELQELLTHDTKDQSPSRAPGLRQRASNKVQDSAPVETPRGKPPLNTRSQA

[2] = test system: verdoheme-HO-1 complex; conditions: in the presence of reductant; cited from earlier work
[3] = target: HO; conditions: cited from earlier work
[4] = target: CaHmx1 (Candida albicans, UniProt Q5AB97); format: binding; conditions: read-out: estimate of the KD; ferric CaHmx1; no full saturation up to 7 mM
[5] = target: T1, ferrous heme-hHO-1; experiment: biochemical; format: binding
[6] = target: T2, hHO-1 (Homo sapiens, UniProt P09601); experiment: biochemical
T2 sequence (P09601 1-265 limits assumed): T1 sequence (P09601 1-265 limits assumed)

[7] = target: T3, hHO-2 (Homo sapiens, UniProt P30519); experiment: biochemical
T3 sequence (P30519 2-295 limits assumed): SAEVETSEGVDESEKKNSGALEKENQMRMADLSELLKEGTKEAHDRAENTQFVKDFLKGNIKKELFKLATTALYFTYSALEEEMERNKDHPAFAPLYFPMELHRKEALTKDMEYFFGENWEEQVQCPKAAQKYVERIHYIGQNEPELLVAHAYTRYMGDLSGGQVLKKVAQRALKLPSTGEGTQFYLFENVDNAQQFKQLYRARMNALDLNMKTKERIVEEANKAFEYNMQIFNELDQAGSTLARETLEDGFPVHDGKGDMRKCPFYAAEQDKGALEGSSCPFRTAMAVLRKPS

[8] = target: T4, ferric verdoheme-hHO-1 (Homo sapiens, UniProt P09601); experiment: biochemical; format: binding
T4 sequence (P09601 1-265 limits assumed): T1 sequence (P09601 1-265 limits assumed)

[9] = target: T5, heme-hHO-1 (Homo sapiens, UniProt P09601); format: binding; conditions: ferric heme-hHO-1
T5 sequence (P09601 1-265 limits assumed): T1 sequence (P09601 1-265 limits assumed)

[10] = target: T5, heme-hHO-1; experiment: biochemical
[11] = Solubility in aqueous solutions; format: physicochemical
[12] = target: HO; conditions: cited from earlier work; remark: listed apart in the source

## [C-]#[O+] [CO, carbon monoxide]
[1]
  Kd: 0.01 µM
  association rate constant: 900000 M⁻¹ s⁻¹
  dissociation rate: 0.009 s⁻¹

## O=O [O2]
[1]
  Kd: 0.04 µM
  association rate constant: 6.9e+06 M⁻¹ s⁻¹
  dissociation rate: 0.25 s⁻¹
[2]
  estimated rate constant of reaction with O2: 250 M⁻¹ s⁻¹

## C=Cc1c2[n-]c(c1C)/C=c1\[n-]/c(c(C)c1C=C)=C\c1[n-]c(c(CCC(=O)O)c1C)C=c1[n-]/c(c(C)c1CCC(=O)O)=C\2.[Sn+4] [Sn-heme]
[3]
  Ki: 0.011 µM

## [C-]#[N+]C(C)C [isopropyl isocyanide]
[4]
  Kd: 3800 µM
[5]; ferrous heme-hHO-1, 20 °C, anaerobic
  association rate constant (kon): 1.3e+06 M⁻¹ s⁻¹
[6]
  IC50: 0.72 ± 0.08 µM
[7]
  IC50: 1.17 ± 0.06 µM
[8]; ferric verdoheme-hHO-1 generated with one equivalent H2O2
  Kd: 440 ± 75 µM

## [C-]#[N+]CCCC [n-butyl isocyanide]
[9]
  fold higher affinity than isopropyl isocyanide: 9 fold
[5]
  Kd: 0.12 µM
[5]; read-out: dissociation rate (koff)
  koff: 0.52 s⁻¹
[6]
  IC50: 0.25 ± 0.01 µM
[7]
  IC50: 0.34 ± 0.02 µM
[10]
  IC50: ~45 µM
[8]
  Kd: 17 ± 3 µM
[8]; ferric verdoheme-hHO-1 versus ferric heme-hHO-1
  fold higher affinity than ferric heme-hHO-1: 2 fold
[11]
  solubility: 6 mM (≈ 499 µg/mL)

## iron protoporphyrin IX [heme]
[6]; read-out: Km for heme, global fit to uncompetitive inhibition
  Km: 0.005 ± 0.001 mM
[12]
  Kd: 0.8 ± 0.2 µM
